Key:
Aβ-ABAD interaction = conditions: cited from earlier work
[1] = cited from earlier work
ABAD = assay type: biochemical
Experimental: Before the assay, all the assay components except SAAC were pre-incubated for 5 minutes, and the reaction started with the addition of SAAC into the reaction mix. The reaction was carried out for a total 6 minutes at room temperature under steady-state conditions, and the decrease of NADH absorbance at 340 nm was determined every 10 seconds. Kinetic data were analyzed by PRISM (Scitech, San Diego, Calif.) to determine IC50 values and Ki. One unit of enzyme activity was defined as that which converted 1.0 μmol of substrate to product per minute.

SK-N-SH cells [2] = assay: Mitochondrial cytochrome c oxidase (CcO) activity in Aβ-treated cells; assay type: cell-based
Experimental: SK-NSH cells were treated with 5 μM oligomer Aβ plus 1 μM of ABAD inhibitor; inhibitor alone; vehicle (VEH) without inhibitor; or Aβ alone. Forty-eight hour later, CcO activity (μmol protein mg^−1 min^−1) was measured in cell lysates.
The CcO activity was measured according to known methods (Du, et al. (2008) Nat. Med. 14:1097-105) with a cytochrome c oxidase kit (Sigma). In brief, SK-N-SH cells were incubated with ABAD inhibitor and oligomer Aβ for 48 hours. After washing the cells twice with PBS, the cells were collected and concentration was determined by the Bradford method. A suitable volume of cells and enzyme solution was added to 475 μl assay buffer. The reaction was triggered by the addition of 25 μl freshly prepared ferrocytochrome C substrate solution into the cuvette. Changes in OD550 nm were recorded immediately with an Amersham Biosciences ULTROSPECT 3100 pro spectrophotometer.
To assess the effect of ABAD inhibitor on Aft-induced mitochondrial respiratory function, CcO activity was determined.

[3] = Pharmacokinetic study and BBB penetration, LC-MS/MS of plasma and brain; assay type: in vivo, C57BL6 mice; conditions: mice, intravenous 10 mg/kg
Experimental: Using the validated LCMS/MS method, blood and brain levels of 4, 8, and 15 were measured in male and female C57BL6 mice (8-10 week-old, weighing approximately 25-30 grams). The mice were housed in a room with controlled temperature (23±3° C.) and moisture level (55±15% relative humidity) and exposed to a controlled 12 hour light/12 hour dark cycle. They were allowed to access to food and water ad libitum. Mice were fasted for 6 hours with free access to water prior to the pharmacokinetic study. To determine the time course of compounds 4, 8, and 15 action in the brain, the plasma pharmacokinetics and BBB penetration capability of the inhibitors were investigated. In these experiments, compounds 4, 8, and 15 were administered to mice by intravenous injection at a dosage of 10 mg/kg. Blood and brain samples were collected from mouse at each time point (2, 5, 10, 30, 60, 120, 240, 360, 720, 1440, and 2880 minutes), a total of 11 time points. For plasma measurements, blood (approximately 500-800 μl) was collected via cardiac-puncture into tubes containing sodium heparin anti-coagulant. Plasma was separated via centrifugation (4° C., 3500 rpm, 10 minutes) and stored in −80° C. freezer. For qualitative confirmations of these compounds in CSF, samples were collected at 2 time points (240 and 1440 min) from five animals at each time point. At the time of measurement, frozen plasma samples were thawed at room temperature and vortexed thoroughly. The following quantities were estimated using non-compartmental calculations performed with WINNONLIN 5.2 (Pharsight, Sunnyvale, Calif.): the area under the plasma concentration-time curve during the period of observation (AUC0-τ); the area under the plasma concentration-time curve from zero to infinity (AUC0-∞); the maximum plasma concentration (Cmax); the time to reach Cmax (Tmax); and the half-life (t1/2).
The LC-MS/MS method described above was used for the determination of 4, 8 and 15 in plasma, brain, and CSF for pharmacokinetic study. Based on the initial concentration data, the pharmacokinetic parameters including the area under the plasma concentration-time curve during the period of observation (AUC0-t), the area under the plasma concentration-time curve from zero to infinity (AUC0-∞) the maximum plasma concentration (Cmax) the time to reach Cmax (Tmax) and the half-life (t1/2) are shown in Table 8.

brain mitochondria = assay: Mitochondria swelling assay in response to Ca2+; set-up: species or system mice
Experimental: Brain from mice without white matter was used for mitochondrial isolation. Brain was homogenized in 9 ml of ice-cold EB buffer (1 mmol EDTA, 1-6 mg/ml BSA) using a Dounce homogenizer until no particles could be seen. Homogenates were centrifuged at 1300×g for 5 minutes. Supernatant from this fraction was carefully laid on top of a 15% PERCOLL solution (10 ml) and then centrifuged at 16000 RPM for 10 minutes. The pellet was carefully mixed with 9 ml of mitochondrial buffer (4.098% D-mannitol, 2.56% sucrose, 0.034% K2HPO4, pH 7.3-7.4) and 200 μl of 1% digitonin. After 5 minutes incubation on ice, the mixture was centrifuged at 8000 RPM for 10 minutes. Mitochondrial pellet was washed once with mitochondrial buffer. Subsequently, the mitochondrial pellet was resuspended in 100 μl of mitochondrial buffer and was used for further experiments.
A proper amount of mitochondria was resuspended into 1 ml swelling assay buffer (150 mM KCl, 2 mM KH2PO4, 10 mM HEPES, pH 7.4) and energized by 1 mM glutamate and 1 mM malate. Calcium at varying concentrations was added into the assay buffer to trigger mitochondrial swelling. Mitochondrial permeability transition was determined by studying the rate of change in absorbance at 540 nm via a spectrophotometer.
Given that the Compounds 4, 8 and 15 could inhibit ABAD activity, it was determined whether these same compounds could decrease mitochondrial permeability transition pore (mPTP) formation.

[4] = Solubility in solvents during LC method development; assay type: physicochemical
Experimental: During the development of a detection method for analytes 4, 8 and 15, multiple solvents were tested to find the optimal mobile phase. […] Acetonitrile was selected for better peak shape and compatibility with serum/brain protein precipitation. Compounds 8 and 15 were chosen as IS, because of their structural similarity. Selected reaction monitoring (SRM) acquisitions were used for sensitivity and extended dynamic range. The cone voltage and collision energy were optimized for 4, 8 and 15 and the IS by continuously infusing a mixture of the two. The optimum cone voltage was 30V.

SK-N-SH cells [5] = assay: ATP levels in Aβ-treated cells; assay type: cell-based
Experimental: Forty-eight hour later, ATP levels (μmol mg^−1 protein) were measured in cell lysates.
To determine the effect of ABAD inhibitors on Aβ-induced impairment in energy metabolism, ATP levels were measured. […] ATP levels were measured in the cell lysates. […] Therefore, ABAD inhibitors can block mitochondrial dysfunction mediated by Aβ.

**Q.** For thioflavin T, which “inhibition of Aβ binding” value (Aβ-ABAD interaction) is on record?
**A.** ~20%

**Q.** Which cell permeability [1] does the source give for `Nc1c(/N=N/c2ccc(-c3ccc(/N=N/c4cc(S(=O)(=O)O)c5ccccc5c4N)cc3)cc2)cc(S(=O)(=O)O)c2ccccc12` [Congo red] here?
**A.** poor cell permeability

**Q.** What about the “inhibition of Aβ binding” value (Aβ-ABAD interaction) of the same compound?
**A.** 100%

**Q.** With `COc1ccc2nc(N[C@@H](c3ccc(F)cc3)P(=O)(OC)OC)sc2c1` [Compound 15, Dimethyl ((4-fluorophenyl) ((6-methoxybenzo[d]thiazol-2-yl)amino)methyl) phosphonate] as the compound, how does the “inhibition of SAAC reduction by ABAD” value (ABAD; at 10 μM) read?
**A.** did not inhibit

**Q.** What about the “inhibitory effect on SAAC reduction by ABAD” value (ABAD; at 100 or 400 μM) of the same compound?
**A.** slight inhibitory effect

**Q.** And the “CcO activity, inhibitor alone” value (SK-N-SH cells [2]; 1 μM inhibitor without Aβ)?
**A.** had no effect on CcO activity

**Q.** And the CcO activity (SK-N-SH cells [2]; 5 μM oligomer Aβ1-42 plus 1 μM inhibitor, 48 hours)?
**A.** reversed the Aβ-mediated decrease of CcO activity

**Q.** And the “t1/2” value ([3]; Brain)?
**A.** 11.4 h

**Q.** And the “t1/2” value ([3]; Plasma)?
**A.** 6.1 h

**Q.** What about the calcium-mediated mitochondrial swelling (brain mitochondria; with calcium) of the same compound?
**A.** antagonized calcium-mediated mitochondrial swelling

**Q.** What about the “mitochondrial swelling without calcium” value (brain mitochondria; without calcium) of the same compound?
**A.** did not affect mitochondrial swelling

**Q.** And the “solubility in methanol or acetonitrile” value ([4]; methanol or acetonitrile)?
**A.** dissolved readily

**Q.** And the solubility in water ([4]; water)?
**A.** dissolved partially

**Q.** And the ATP levels (SK-N-SH cells [5]; 5 μM Aβ1-42 plus 1 μM inhibitor)?
**A.** rescued ATP levels

**Q.** What about the “ATP levels, inhibitor alone” value (SK-N-SH cells [5]; inhibitor without Aβ) of the same compound?
**A.** comparable to cells treated with vehicle alone

**Q.** Which inhibitory activity (Aβ-ABAD interaction) does the source give for fentizole here?
**A.** exhibit inhibitory activity
